SMILES strings stand for the structures.

What all share (format): cell-based, human
Test [1] concerns Patient B2 breast cancer cells. Description: CELx Anti-Proliferative test, impedance biosensor CReMS. To be noted: continuous recording. How it is done:
(§1) A CELx Anti-Proliferative test was performed using cells from two breast cancer patients (Patients B1 and B2) and the drug Paclitaxel. The physiologic change of the Bland B2 cells during the test was measured with an impedance biosensor CReMS and the output from the CReMS is recorded in FIGS. 2A and 2B. The comparison of the CELx test results and the third party clinical reference is recorded in FIG. 2C.
(§2) The CReMS, microplate, reagents, and buffers used in Example 1 are the same as those employed in Example 2, except for the therapeutic agent tested. In Example 2, the therapeutic agent, paclitaxel, was tested. Paclitaxel was purchased from Selleck Chemicals (TX, USA).
(§3) Between 6,000-12,000 cells in each well were seeded onto the impedance microplate containing 120 uL settling media with serum. Forty microliters of the drug paclitaxel were added to one set each of the B1 and B2 cells; another control set of B1 and B2 cells received no drug. The CReMS recording of physiologic change was maintained continuously from when the cells were first seeded on the microplate through complete cellular response, which was between 48-72 hours. The test was performed at 37° C., 5% CO2 and at 75% relative humidity.

Test [2] has as its system Patient B1 breast cancer cells. The test is described as above. To be noted: continuous recording throughout the test period, untreated control cells. Here is the method:
as §1, §2, §3

Test [3] relates to breast cancer patient cells. Put plainly: CELx Pathway Shutdown single drug test (Example 4), impedance biosensor CReMS. To be noted: one patient breast cancer cell sample expected to be a responder. Here is the method:
Between 6,000-12,000 cells in each well were seeded onto the impedance microplate containing 120 uL standard media with serum. The solution was replaced with media containing no serum to synchronize the cells with respect to physiologic state and pathway stimulation. Twenty microliters of drugs were added to the no-serum media two hours in advance of pathway stimulation. Pathway stimulation was initiated using EC80 doses of receptor ligand (typically 6 nM in 20 uL). The CReMS recording of physiologic change was maintained continuously for several hours from buffer exchange through complete cellular response to the pathway stimulation. The pathway test was performed at 37° C., 5% CO2 and at a relative humidity 75%.
The physiologic change of the cells and drugs tested was measured with an impedance biosensor CReMS and the summary output from the CReMS is recorded in FIG. 4. The correlation between these CELx test results and the third party clinical reference is recorded in FIG. 7.
In those experiments involving anti-proliferative drugs (capecitabine, docetaxel, fluorouracil, paclitaxel, topotecan, cisplatin, and oxiliplatin), the procedures described in Example 2 were utilized. In those experiments involving a combination of drugs, the procedures described in Example 3 were utilized. The list of patient cells and the drug tested with the cells is characterized in FIG. 4.

The test system of test [4] is Patient C2 colon cancer cells. Description: CELx Combination test, impedance biosensor CReMS. To be noted: Patient C2 cells (printed Patient 2), single drug.
Protocol: The physiologic change of the C1 and C2 cells during the test was measured with an impedance biosensor CReMS and the output from the CReMS is recorded in FIGS. 3A and 3B.
Between 6,000-12,000 cells in each well were seeded into the impedance microplate containing 120 uL settling media with serum. The solution was replaced with media containing no serum to synchronize the cells with respect to physiologic state. […] The CReMS recording of physiologic change was maintained continuously from when the cells were first seeded on the microplate through complete cellular response, which was between 48-72 hours. The test was performed at 37° C., 5% CO2 and at 75% relative humidity.
Test [5] relates to Patient B1 HER2 overexpressing breast cancer cells. Description: CELx Pathway Shutdown test, impedance biosensor CReMS, EGF stimulation. The following applies: drug added two hours before EGF pathway stimulation, compared to stimulation with no drug. The text has this:
The change in impedance for a particular well is proportional to the number of cells and type of attachment the cells have with the impedance microplate. Changes in impedance indicate a response to perturbation of these small cell populations.
Prior to addition to the impedance microplate, the cells were removed from their growth container with versene, counted, and re-suspended in media without serum or other growth factors.
The solution was replaced with media containing no serum to synchronize the cells with respect to physiologic state and pathway stimulation. Twenty microliters of drugs were added to the no-serum media two hours in advance of pathway stimulation.

In the case of `CC(=O)O[C@H]1C(=O)[C@@]2(C)[C@H]([C@H](OC(=O)c3ccccc3)[C@]3(O)C[C@H](OC(=O)[C@H](O)[C@@H](NC(=O)c4ccccc4)c4ccccc4)C(C)=C1C3(C)C)[C@]1(OC(C)=O)CO[C@@H]1C[C@@H]2O` [Paclitaxel], the “time after which CReM output reverses (test cells begin proliferating, no longer responsive)” value in test [1] is given as “roughly 24 hours”. Also, the “responsiveness: decrease in CReM output compared to control cells” value was “initial responsiveness” in test [1] (untreated control cells); “immediate and continuous responsiveness” in test [2].

As for `COc1cc2ncnc(Nc3ccc(F)c(Cl)c3)c2cc1OCCCN1CCOCC1` [gelfitinib, gefitinib], the “response in the CReMS testing” value in test [3] is listed as “did not show a response”.

Consider `CCc1c2c(nc3ccc(OC(=O)N4CCC(N5CCCCC5)CC4)cc13)-c1cc3c(c(=O)n1C2)COC(=O)[C@]3(O)CC` [irinotecan, Irinotecan], for which, in test [4], the “responsiveness to each individual drug” value is “responsive”.

In the case of `CS(=O)(=O)CCNCc1ccc(-c2ccc3ncnc(Nc4ccc(OCc5cccc(F)c5)c(Cl)c4)c3c2)o1` [lapatinib, Lapatinib], the “change (decrease) of cell index of the test cells after drug added” value in test [5] was “over 50%”.

These data come from patent publication US10976307B2, “Whole cell assays and methods” (Celcuity Inc., priority 2012, dated 2021).
